The test system of data set [1] is Leishmania infantum. As to the kind of experiment: Antiparasitic activity against amastigotes of Leishmania infantum infected in mouse peritoneal macrophages after 5 days using giemsa staining by microscopic analysis. Type of data set: functional, organism-based.
For data set [2], the system named is Plasmodium falciparum. The data set can be described thus: Antimalarial activity against chloroquine-sensitive Plasmodium falciparum GHA infected in human erythrocytes assessed as parasite growth after 72 hrs by malstat reagent based spectrophotometric method. Type of data set: functional, organism-based.
A short description of data set [3]: Solubility of the compound. Type of data set: physicochemical.
Data set [4] deals with MRC5. As to the kind of experiment: Cytotoxicity against human MRC5 cells after 4 to 7 days using alamar blue/resazurin staining by fluorescence assay. It is filed as cell-based. In general terms: Resazurin is reduced to fluorescent resorufin, in cell work by metabolically active cells.
The test system of data set [5] is Trypanosoma cruzi. As to the kind of experiment: Antiparasitic activity against nifurtimox-sensitive amastigotes of Trypanosoma cruzi Tulahuen expressing LacZ gene infected in human MRC5 cells using chlorophenolred b-Dgalacto-pyranoside as substrate by colorimetric method. It is filed as functional, organism-based.
Data set [6] deals with Trypanosoma brucei. The data set can be described thus: Antiparasitic activity against trypomastigote form of drug-sensitive Trypanosoma brucei assessed as inhibition of parasite growth after 4 days using alamar blue/resazurin staining by fluorimetric method. It is filed as functional, organism-based.
Data set [7] in a line: Solubility of the compound in 13% DMSO/water. It is filed as physicochemical. The following applies: buffer.
Data set [8] in a line: Selectivity index, ratio of IC50 for human MRC5 cells to IC50 for drug-sensitive trypomastigotes of Trypanosoma brucei. It is filed as toxicity, cell-based. The following applies: read-out: Ratio IC50.
Data set [9] is described as follows: Solubility of the compound in 100% DMSO. It is filed as physicochemical.
A short description of data set [10]: Selectivity index, ratio of IC50 for human MRC5 cells to IC50 for nifurtimox-sensitive amastigotes of Trypanosoma cruzi. Type of data set: toxicity, cell-based. The following applies: read-out: Ratio IC50.
The nature of data set [11]: Selectivity index, ratio of IC50 for human MRC5 cells to IC50 for chloroquine-sensitive Plasmodium falciparum GHA. Type of data set: toxicity, cell-based. The following applies: read-out: Ratio IC50.
Setting [12] is: Plasmodium falciparum, GHA, 72 h.
Where [13] appears, read: Trypanosoma cruzi, Tulahuen, MRC5.

The record followed here is ChEMBL document CHEMBL1938376, “In vitro and in silico studies of polycondensed diazine systems as anti-parasitic agents” (Bioorg Med Chem Lett, 2012).

In general, IC50 refers to the midpoint of a concentration-inhibition curve.

With `O=C(C1=NN(c2ccccc2)C2C3N(c4ccccc4)N=C(C(=O)c4ccccc4)N3c3ccccc3N12)c1ccccc1` (configuration not stated), the IC50 was 32.5 µM in [1] (Leishmania infantum, 120 h); 27.7 µM in data set [2] (setting [12]); 17.6 µM in data set [4] (Homo sapiens, MRC5); 64 µM in data set [5] (setting [13]); 2.03 µM in data set [6] (Trypanosoma brucei, 96 h). For the same molecule, the solubility result in data set [3] and in [7] was “soluble” each time. In addition, the selectivity ratio in data set [8] was 2.
Consider `C1=NN(c2ccccc2)C2C3N(C=NN3c3ccccc3)c3ccccc3N12` (configuration not stated), for which the IC50 in data set [1] (Leishmania infantum, 120 h) was found to be 64 µM; in data set [2] (setting [12]), 29.8 µM; in [4] (Homo sapiens, MRC5), 64 µM; in data set [5] (setting [13]) it was 64 µM; in data set [6] (Trypanosoma brucei, 96 h), 64 µM. Further, the solubility result in data set [7] is listed as “soluble”.
For the molecule `COC(=O)C1=NN(c2ccccc2)C2=CNc3c(C)cccc3N21`, the IC50 in data set [1] (Leishmania infantum, 120 h) stood at 64 µM; in data set [2] (setting [12]), 64 µM; in [4] (Homo sapiens, MRC5), 64 µM; in data set [5] (setting [13]), 64 µM; in [6] (Trypanosoma brucei, 96 h), 64 µM. In addition, the solubility result in data set [7] was “soluble”.
With `COC(=O)C1=NN(c2ccccc2)C2C3N(c4ccccc4)N=C(C(=O)OC)N3c3[nH]c(-c4ccccc4)cc3N12` (configuration not stated), the half-inhibitory concentration (IC50) in [1] (Leishmania infantum, 120 h) stood at 32.5 µM; in data set [2] (setting [12]) it was 6.87 µM; in data set [4] (Homo sapiens, MRC5), 64 µM; in data set [5] (setting [13]) it was 64 µM; in [6] (Trypanosoma brucei, 96 h) it was 64 µM. For the same molecule, the solubility entry in data set [7] is “soluble”.
As for `CC(=O)C1=NN(c2ccccc2)C2C3N(c4ccccc4)N=C(C(C)=O)N3c3[nH]c(-c4ccccc4)cc3N12` (configuration not stated), the solubility result in data set [9] is reported as “Insoluble”; in data set [3], “soluble”. Besides, the IC50 came out at 32.5 µM in data set [1] (Leishmania infantum, 120 h); 2.15 µM in data set [2] (setting [12]); 64 µM in data set [4] (Homo sapiens, MRC5); 64 µM in data set [5] (setting [13]); 64 µM in data set [6] (Trypanosoma brucei, 96 h).
As for `CCOC(=O)C1=NN(c2ccc(Cl)cc2)C2C3N(c4ccc(Cl)cc4)N=C(C(=O)OCC)N3c3[nH]c(-c4ccccc4)cc3N12` (configuration not stated), the IC50 in data set [1] (Leishmania infantum, 120 h) was determined as 64 µM; in data set [2] (setting [12]), 26.9 µM; in [4] (Homo sapiens, MRC5) it was 64 µM; in [5] (setting [13]), 40.3 µM; in [6] (Trypanosoma brucei, 96 h), 32.2 µM. The solubility entry in [7] is recorded as “soluble”.
Turning to `C1=C(c2ccccc2)NC2=NC=C3N(c4ccccc4)N=C(c4ccccc4)N3C12` (configuration not stated), the solubility entry in data set [9] is listed as “Insoluble”. Moreover, the IC50 in data set [1] (Leishmania infantum, 120 h) is 64 µM; in data set [2] (setting [12]), 64 µM; in [4] (Homo sapiens, MRC5), 64 µM; in data set [5] (setting [13]), 64 µM; in [6] (Trypanosoma brucei, 96 h), 64 µM.
Take `COC(=O)C1=NN(c2ccccc2)C2=CN=C3NC(c4ccccc4)=CC3N21` (configuration not stated): in [9], the solubility entry is listed as “Insoluble”. Besides, the 50% inhibitory concentration (IC50) in data set [1] (Leishmania infantum, 120 h) was 64 µM; in data set [2] (setting [12]), 64 µM; in [4] (Homo sapiens, MRC5), 64 µM; in [5] (setting [13]), 64 µM; in data set [6] (Trypanosoma brucei, 96 h) it was 64 µM.
For `COC(=O)C1=NN(c2ccc(Cl)cc2)C2C3N(c4ccc(Cl)cc4)N=C(C(=O)OC)N3c3c(C)cccc3N12` (racemic), the IC50 turned out to be 64 µM in [1] (Leishmania infantum, 120 h); 42.6 µM in data set [2] (setting [12]); 64 µM in data set [4] (Homo sapiens, MRC5); 64 µM in data set [5] (setting [13]); 64 µM in data set [6] (Trypanosoma brucei, 96 h). For the same molecule, in data set [7], the solubility entry is reported as “soluble”.
As for `COC(=O)C1=NN(c2ccccc2)[C@@H]2N1c1ccccc1N1C(C(=O)OC)=NN(c3ccccc3)[C@@]21C` (racemic), the IC50 in [1] (Leishmania infantum, 120 h) is 64 µM; in data set [2] (setting [12]) it was 11.6 µM; in data set [4] (Homo sapiens, MRC5), 64 µM; in data set [5] (setting [13]), 4.29 µM; in [6] (Trypanosoma brucei, 96 h), 64 µM. The solubility entry in [7] is “soluble”. In addition, in data set [10], the selectivity ratio came to 6.
With `CCOC(=O)C1=NN(c2ccc(Cl)cc2)[C@@H]2N1c1ccccc1N1C(C(=O)OCC)=NN(c3ccc(Cl)cc3)[C@@]21C` (racemic), the IC50 in data set [1] (Leishmania infantum, 120 h) was 64 µM; in [2] (setting [12]) it was 0.5 µM; in data set [4] (Homo sapiens, MRC5), 64 µM; in data set [5] (setting [13]) it was 64 µM; in [6] (Trypanosoma brucei, 96 h), 64 µM. The solubility entry in data set [3] and in data set [7] was “soluble” throughout. Also, the selectivity ratio in [11] stood at 128.
As for `CC(=O)C1=NN(c2ccccc2)[C@@H]2N1c1ccccc1N1C(C(C)=O)=NN(c3ccccc3)[C@@]21C` (racemic), the IC50 in data set [1] (Leishmania infantum, 120 h) was 24.1 µM; in data set [2] (setting [12]) it was 29.2 µM; in data set [4] (Homo sapiens, MRC5), 64 µM; in data set [5] (setting [13]), 33.7 µM; in data set [6] (Trypanosoma brucei, 96 h), 32.2 µM. In addition, the solubility entry in [7] is “soluble”.
As to `C[C@]12[C@@H]3N(c4ccccc4)N=C(C(=O)c4ccccc4)N3c3ccccc3N1C(C(=O)c1ccccc1)=NN2c1ccccc1` (racemic), the 50% inhibitory concentration (IC50) came out at 8 µM in data set [1] (Leishmania infantum, 120 h); 8.23 µM in data set [2] (setting [12]); 64 µM in data set [4] (Homo sapiens, MRC5); 10.1 µM in data set [5] (setting [13]); 2.06 µM in [6] (Trypanosoma brucei, 96 h). In addition, in data set [7], the solubility result was “soluble”. The selectivity ratio in data set [8] stood at 2.
Consider `COC(=O)C1=NN(c2ccc(Cl)cc2)C2(C1)Nc1ccccc1N1C(C(=O)OC)=NN(c3ccc(Cl)cc3)C12` (racemic), for which the 50% inhibitory concentration (IC50) amounted to 64 µM in data set [1] (Leishmania infantum, 120 h); 64 µM in data set [2] (setting [12]); 64 µM in data set [4] (Homo sapiens, MRC5); 64 µM in [5] (setting [13]); 64 µM in [6] (Trypanosoma brucei, 96 h). Further, the solubility result in [7] is on record as “soluble”.
For the molecule `CC(=O)C1=NN(c2ccccc2)C2C3N(c4ccccc4)N=C(C(C)=O)N3c3ccccc3N12` (stereo in doubt; 4a), the IC50 in [1] (Leishmania infantum, 120 h) is 32 µM; in data set [2], 64 µM; in data set [4] (mrc5) it was 64 µM; in data set [5] (mrc5) it was 38.1 µM; in [6] it was 64 µM. Moreover, the solubility entry in [7] is reported as “soluble”.
Take `CC(=O)C1=NN(c2ccccc2)C2C3N(c4ccccc4)N=C(C(C)=O)N3c3ccccc3N12` (stereo in doubt; 4b): the IC50 was 32.5 µM in [1]; 8.48 µM in data set [2]; 29.6 µM in data set [4] (mrc5); 12.6 µM in [5] (mrc5); 8.06 µM in [6].
Consider `COC(=O)C1=NN(c2ccccc2)C2C3N(c4ccccc4)N=C(C(=O)OC)N3c3ccccc3N12` (stereo in doubt; 4d), for which the IC50 in data set [1] (Leishmania infantum, 120 h) came to 64 µM; in data set [2], 12.3 µM; in data set [4] (Homo sapiens, MRC5), 64 µM; in data set [5] (setting [13]), 64 µM; in data set [6] (Trypanosoma brucei, 96 h), 64 µM. Moreover, the solubility entry in data set [7] is listed as “soluble”. Further, the selectivity ratio in data set [10] came out at 6.
Turning to `COC(=O)C1=NN(c2ccccc2)C2C3N(c4ccccc4)N=C(C(=O)OC)N3c3ccccc3N12` (stereo in doubt; 4e), the IC50 in data set [2] stood at 25.6 µM; in data set [4] (mrc5) it was 33.1 µM; in data set [5] (mrc5) it was 42.5 µM; in data set [6], 34.6 µM.
On to `CCOC(=O)C1=NN(c2ccc(Cl)cc2)C2C3N(c4ccc(Cl)cc4)N=C(C(=O)OCC)N3c3ccccc3N12` (stereo in doubt; 4f), for which the IC50 in data set [1] (Leishmania infantum, 120 h) came out at 64 µM; in data set [2] it was 37.3 µM; in [4] (mrc5), 64 µM; in data set [5] (mrc5) it was 64 µM; in [6] it was 64 µM. Further, the solubility result in [7] is “soluble”.
In the case of `CCOC(=O)C1=NN(c2ccc(Cl)cc2)C2C3N(c4ccc(Cl)cc4)N=C(C(=O)OCC)N3c3ccccc3N12` (stereo in doubt; 4g), the IC50 in [1] worked out at 32 µM; in data set [2], 18.6 µM; in data set [4] (mrc5) it was 12.4 µM; in data set [5] (mrc5), 8.75 µM; in data set [6], 2.01 µM. The solubility result in data set [3] is reported as “soluble”. For the same molecule, the selectivity ratio in data set [10] amounted to 6; in data set [8], 2.
